Values quoted from earlier work, collected in patent US10172842B2, “Sustained release oral dosage form containing dalfampridine” (PharmaDax Inc., priority 2015, dated 2019).

Experiments:
[1] = in the absence of other risk factors
[2] = plasma concentrations lower than 13 ng/mL

Nc1ccncc1 [dalfampridine, 4-aminopyridine]
plasma dalfampridine concentration considered a likely threshold for increased risk of seizure [1]: approximately 100 ng/mL | changes in walking speed in MS patients [2]: low percentage changes in walking speed
